The results in this text go back to US7902181B2, “Compounds 010” (AstraZeneca AB, priority 2007, dated 2011).

Counter-ions that a name gives are not always drawn.

The target of the assay is Recombinant Human (rh) DPP1 (Homo sapiens, UniProt P53634). In words: Fluorescence Assay for Recombinant Human (rh) DPP1. Conditions: rhDPP1; substrate H-Gly-Arg-AMC; pH5.0; 30 min pre-incubation, 60 min reaction at 22° C.; highest concentration 10 μM; read-out: DPP1 activity, pIC50 (converted). Type of assay: biochemical. The method, then: Fluorescence Assay for Recombinant Human (rh) DPP1
The activity of DPP1 was determined by measuring the enzymatic release of aminomethyl coumarin (AMC) from the peptide substrate (H-Gly-Arg-AMC), which leads to an increase in fluorescence intensity at λex=350 nm and λem=450 nm. The assay was carried out in black 384 well plates in a final volume of 50 μl at 22° C. The assay conditions contained the following: 25 mM piperazine buffer pH5.0; 50 mM NaCl, 5 mM DTT; 0.01% (v/v) Triton X-100; 100 μM H-Gly-Arg-AMC and rhDPP1 ([…]). Potential inhibitors were made up in DMSO and then diluted in the assay to give a final concentration of 1% (v/v) DMSO. A 12-point half-log dilution of the inhibitors (highest concentration 10 μM) was tested and the pIC50 determined using a 4-parameter logistic equation in a non-linear curve fitting routine. A standard DPP1 inhibitor (vinyl sulfone, see below) was used as a positive control in the assay. Routinely, inhibitors were pre-incubated with rhDPP1 for 30 min prior to the addition of the peptide substrate to start the reaction for a further 60 min at 22° C. After that the plates were immediately read in a fluorescence plate reader using the above emission and excitation wavelengths [modified from Kam, C M, Gotz, M G, Koot, G, McGuire, M J, Thiele, D L, Hudig, D & Powers, J C (2004). Arch Biochem Biophys, 427, 123-134 & McGuire, M J, Lipsky, P E & Thiele, D L (1992). Arch Biochem Biophys, 295, 280-288].

Recombinant Human (rh) DPP1, sequence (P53634 25-463): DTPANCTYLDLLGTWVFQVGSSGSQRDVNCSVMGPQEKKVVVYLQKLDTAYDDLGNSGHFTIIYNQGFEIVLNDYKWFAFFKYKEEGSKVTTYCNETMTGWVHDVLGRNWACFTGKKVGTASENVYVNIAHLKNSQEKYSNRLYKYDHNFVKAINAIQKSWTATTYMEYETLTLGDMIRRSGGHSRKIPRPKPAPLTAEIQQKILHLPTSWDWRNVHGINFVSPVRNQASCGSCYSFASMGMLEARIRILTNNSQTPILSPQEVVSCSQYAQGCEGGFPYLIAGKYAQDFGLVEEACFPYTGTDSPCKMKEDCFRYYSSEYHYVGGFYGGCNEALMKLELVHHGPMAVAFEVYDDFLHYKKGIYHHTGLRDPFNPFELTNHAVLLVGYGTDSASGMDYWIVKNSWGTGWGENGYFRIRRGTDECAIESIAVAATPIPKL

As for `COc1ccc(-c2ccc(C[C@@H](C#N)NC(=O)[C@@H]3CCCCN3)cc2)cc1` [Example 25, (2S)-N-[(1S)-1-Cyano-2-[4-(4-methoxyphenyl)phenyl]ethyl]piperidine-2-carboxamide trifluoroacetate], the IC50 is 63.1 nM.

Consider `Cn1cc(-c2ccc(C[C@@H](C#N)NC(=O)[C@@H]3CCCCN3)cc2)cn1` [Example 26, (2S)-N-[(1S)-1-Cyano-2-[4-(1-methylpyrazol-4-yl)phenyl]ethyl]piperidine-2-carboxamide trifluoroacetate], for which the IC50 was 63.1 nM.

In the case of `N#C[C@H](Cc1ccc(-c2ccc(CCCO)cc2)cc1)NC(=O)[C@@H]1CCCCN1` [Example 27, (2S)-N-[(1S)-1-Cyano-2-[4-[4-(3-hydroxypropyl)phenyl]phenyl]ethyl]piperidine-2-carboxamide trifluoroacetate], the IC50 is 63.1 nM.

Take `N#C[C@H](Cc1ccc(-c2ccc3c(c2)OCO3)cc1)NC(=O)[C@@H]1CCCCN1` [Example 28, (2S)-N-[(1S)-2-(4-Benzo[1,3]dioxol-5-ylphenyl)-1-cyano-ethyl]piperidine-2-carboxamide trifluoroacetate]: the IC50 was 100 nM.

As for `N#C[C@H](Cc1ccc(-c2ccc(F)c(F)c2)cc1)NC(=O)[C@@H]1CCCCN1` [Example 29, (2S)-N-[(1S)-1-Cyano-2-[4-(3,4-difluorophenyl)phenyl]ethyl]piperidine-2-carboxamide trifluoroacetate], the IC50 is 100 nM.

For `N#C[C@H](Cc1ccc(-c2ccc(F)cc2OCc2ccccc2)cc1)NC(=O)[C@@H]1CCCCN1` [Example 30, (2S)-N-[(1S)-1-Cyano-2-[4-(4-fluoro-2-phenylmethoxy-phenyl)phenyl]ethyl]pipe-ridine-2-carboxamide trifluoroacetate], the IC50 is 100 nM.

Take `COc1ccc(-c2ccc(C[C@@H](C#N)NC(=O)[C@@H]3CCCCN3)cc2)cc1F` [Example 31, (2S)-N-[(1S)-1-Cyano-2-[4-(3-fluoro-4-methoxy-phenyl)phenyl]ethyl]pipe-ridine-2-carboxamide trifluoroacetate]: the IC50 is 158 nM.

Turning to `COc1ccc(-c2ccc(C[C@@H](C#N)NC(=O)[C@@H]3CCCCN3)cc2)cc1OC` [Example 32, (2S)-N-[(1S)-1-Cyano-2-[4-(3,4-dimethoxyphenyl)phenyl]ethyl]piperidine-2-carboxamide trifluoroacetate], the IC50 was 158 nM.

Turning to `COc1ccc(-c2ccc(C[C@@H](C#N)NC(=O)[C@@H]3CCCCN3)cc2)c(OC)c1` [Example 33, (2S)-N-[(1S)-1-Cyano-2-[4-(2,4-dimethoxyphenyl)phenyl]ethyl]piperidine-2-carboxamide trifluoroacetate], the IC50 was 200 nM.

`N#C[C@H](Cc1ccc(-c2cccc(C(N)=O)c2)cc1)NC(=O)[C@@H]1CCCCN1` [Example 34, (2S)-N-[(1S)-2-[4-(3-Carbamoylphenyl)phenyl]-1-cyano-ethyl]piperidine-2-carboxamide trifluoroacetate]: the IC50 was 200 nM.

For the molecule `N#C[C@H](Cc1ccc(-c2ccc3c(c2)OCCO3)cc1)NC(=O)[C@@H]1CCCCN1` [Example 35, (2S)-N-[(1S)-1-Cyano-2-[4-(2,5-dioxabicyclo[4.4.0]deca-7,9,11-trien-8-yl)phenyl]ethyl]piperidine-2-carboxamide trifluoroacetate], the IC50 is 251 nM.

`N#C[C@H](Cc1ccc(-c2ccc(CN)cc2)cc1)NC(=O)[C@@H]1CCCCN1` [Example 36, (2S)-N-[(1S)-2-[4-[4-(Aminomethyl)phenyl]phenyl]-1-cyano-ethyl]piperidine-2-carboxamide trifluoroacetate]: the IC50 is 251 nM.

As to `CN(C)c1ncc(-c2ccc(C[C@@H](C#N)NC(=O)[C@@H]3CCCCN3)cc2)cn1` [Example 37, (2S)-N-[(1S)-1-Cyano-2-[4-(2-dimethylaminopyrimidin-5-yl)phenyl]ethyl]piperidine-2-carboxamide trifluoroacetate], the IC50 is 316 nM.

Consider `Cc1cscc1-c1ccc(C[C@@H](C#N)NC(=O)[C@@H]2CCCCN2)cc1` [Example 38, (2S)-N-[(1S)-1-Cyano-2-[4-(4-methylthiophen-3-yl)phenyl]ethyl]piperidine-2-carboxamide trifluoroacetate], for which the IC50 was 316 nM.

Take `CCCOc1ccc(-c2ccc(C[C@@H](C#N)NC(=O)[C@@H]3CCCCN3)cc2)cc1F` [Example 39, (2S)-N-[(1S)-1-Cyano-2-[4-(3-fluoro-4-propoxy-phenyl)phenyl]ethyl]pipe-ridine-2-carboxamide trifluoroacetate]: the IC50 was 316 nM.

In the case of `COc1ncccc1-c1ccc(C[C@@H](C#N)NC(=O)[C@@H]2CCCCN2)cc1` [Example 40, (2S)-N-[(1S)-1-Cyano-2-[4-(2-methoxypyridin-3-yl)phenyl]ethyl]piperidine-2-carboxamide trifluoroacetate], the IC50 was 316 nM.

Turning to `Cn1nccc1-c1ccc(C[C@@H](C#N)NC(=O)[C@@H]2CCCCN2)cc1` [Example 41, (2S)-N-[(1S)-1-Cyano-2-[4-(2-methylpyrazol-3-yl)phenyl]ethyl]piperidine-2-carboxamide trifluoroacetate], the IC50 was 398 nM.

Take `CN(C)C(=O)c1cccc(-c2ccc(C[C@@H](C#N)NC(=O)[C@@H]3CCCCN3)cc2)c1` [Example 42, (2S)-N-[(1S)-1-Cyano-2-[4-[3-(dimethylcarbamoyl)phe-nyl]phenyl]ethyl]piperi-dine-2-carboxamide trifluoroacetate]: the IC50 is 501 nM.

In the case of `CCS(=O)(=O)c1ccc(-c2ccc(C[C@@H](C#N)NC(=O)[C@@H]3CCCCN3)cc2)c(C)c1` [Example 43, (2S)-N-[(1S)-1-Cyano-2-[4-(4-ethylsulfonyl-2-methyl-phenyl)phenyl]ethyl]pipe-ridine-2-carboxamide trifluoroacetate], the IC50 was 631 nM.

In the case of `COc1c(F)cc(F)cc1-c1ccc(C[C@@H](C#N)NC(=O)[C@@H]2CCCCN2)cc1` [Example 44, (2S)-N-[(1S)-1-Cyano-2-[4-(3,5-difluoro-2-methoxy-phenyl)phenyl]ethyl]pipe-ridine-2-carboxamide trifluoroacetate], the IC50 was 631 nM.

Regarding `N#C[C@H](Cc1ccc(-c2cccc(CO)c2)cc1)NC(=O)[C@@H]1CCCCN1` [Example 45, (2S)-N-[(1S)-1-Cyano-2-[4-[3-(hydroxymethyl)phenyl]phenyl]ethyl]piperidine-2-carboxamide trifluoroacetate], the IC50 is 794 nM.

As for `COc1ncc(-c2ccc(C[C@@H](C#N)NC(=O)[C@@H]3CCCCN3)cc2)cn1` [Example 46, (2S)-N-[(1S)-1-Cyano-2-[4-(2-methoxypyrimidin-5-yl)phenyl]ethyl]piperidine-2-carboxamide trifluoroacetate], the IC50 is 1260 nM.

For the molecule `CN1CCN(c2ccc(-c3ccc(C[C@@H](C#N)NC(=O)[C@@H]4CCCCN4)cc3)cn2)CC1` [Example 47, (2S)-N-[(1S)-1-Cyano-2-[4-[6-(4-methylpiperazin-1-yl)pyridin-3-yl]phenyl]ethyl]piperidine-2-carboxamide trifluoroacetate], the IC50 is 1260 nM.

For the molecule `N#C[C@H](Cc1ccc(-c2ccccc2O)cc1)NC(=O)[C@@H]1CCCCN1` [Example 48, (2S)-N-[(1S)-1-Cyano-2-[4-(2-hydroxyphenyl)phenyl]ethyl]piperidine-2-carboxamide trifluoroacetate], the IC50 is 1580 nM.

Turning to `N#C[C@H](Cc1ccc(-c2cccc3cccnc23)cc1)NC(=O)[C@@H]1CCCCN1` [Example 49, (2S)-N-[(1S)-1-Cyano-2-(4-quinolin-8-ylphenyl)phenyl]piperidine-2-carboxamide trifluoroacetate], the IC50 is 2000 nM.

As to `Cc1ccccc1-c1ccc(C[C@@H](C#N)NC(=O)[C@@H]2CCCCN2)cc1` [Example 50, (2S)-N-[(1S)-1-Cyano-2-[4-(2-methylphenyl)phenyl]eth-yl]piperidine-2-carboxamide trifluoroacetate], the IC50 is 2000 nM.

For `N#C[C@H](Cc1ccc(-c2ccccc2OCc2ccccc2)cc1)NC(=O)[C@@H]1CCCCN1` [Example 51, (2S)-N-[(1S)-1-Cyano-2-[4-(2-phenylmethoxyphenyl)phenyl]ethyl]piperidine-2-carboxamide trifluoroacetate], the IC50 is 2000 nM.

With `Cc1ncccc1-c1ccc(C[C@@H](C#N)NC(=O)[C@@H]2CCCCN2)cc1` [Example 52, (2S)-N-[(1S)-1-Cyano-2-[4-(2-methylpyridin-3-yl)phenyl]ethyl]piperidine-2-carboxamide trifluoroacetate], the IC50 was 3160 nM.

As to `N#Cc1ccc(-c2ccc(C[C@@H](C#N)NC(=O)[C@@H]3CCCCN3)cc2)cn1` [Example 53, (S)-N-((S)-1-Cyano-2-(4-(6-cyanopyridin-3-yl)phenyl)ethyl)piperidine-2-carboxamide], the IC50 is 31.6 nM.

For the molecule `N#C[C@H](Cc1ccc(-c2ccc3sc(=O)n(CCO)c3c2)cc1)NC(=O)[C@@H]1CCCCN1` [Example 54, (S)-N-((S)-1-Cyano-2-(4-(3-(2-hydroxyethyl)-2-oxo-2,3-dihydrobenzo[d]thiazol-5-yl)phenyl)ethyl)piperidine-2-carboxamide], the IC50 was 5.01 nM.
